Test results taken from ChEMBL document CHEMBL3774345, “Synthesis of new diarylamides with pyrimidinyl pyridine scaffold and evaluation of their anti-proliferative effect on cancer cell lines” (Bioorg Med Chem Lett, 2016).

Experiments:
Format in all cases: functional
[1] = Cytotoxicity against human TK10 cells assessed as cell growth at 10 uM after 24 hrs by SRB assay; details: TK-10, 24 h, read-out: Activity
[2] = Cytotoxicity against human HOP92 cells assessed as growth inhibition at 10 uM after 24 hrs by SRB assay; details: HOP-92, 24 h, read-out: GI
MDA-MB-231 = assay: Cytotoxicity against human MDA-MB-231 cells assessed as growth inhibition at 10 uM after 24 hrs by SRB assay; details: MDA-MB-231, 24 h, read-out: GI
[3] = Cytotoxicity against human UO31 cells assessed as growth inhibition at 10 uM after 24 hrs by SRB assay; details: UO-31, 24 h, read-out: GI
[4] = Cytotoxicity against human HCT116 cells assessed as cell growth at 10 uM after 24 hrs by SRB assay; details: HCT-116, 24 h, read-out: Activity
MDA-MB-435 = assay: Cytotoxicity against human MDA-MB-435 cells assessed as cell growth at 10 uM after 24 hrs by SRB assay; details: MDA-MB-435, 24 h, read-out: Activity
SK-MEL-5 = assay: Cytotoxicity against human SK-MEL-5 cells assessed as growth inhibition at 10 uM after 24 hrs by SRB assay; details: SK-MEL-5, 24 h, read-out: GI
K562 [5] = assay: Cytotoxicity against human K562 cells assessed as cell growth at 10 uM after 24 hrs by SRB assay; details: K562, 24 h, read-out: Activity
[6] = Cytotoxicity against human Hs 578T cells assessed as cell growth at 10 uM after 24 hrs by SRB assay; details: read-out: Activity
NCI-H23 = assay: Cytotoxicity against human NCI-H23 cells assessed as cell growth at 10 uM after 24 hrs by SRB assay; details: NCI-H23, 24 h, read-out: Activity
[7] = Cytotoxicity against human SNB75 cells assessed as cell growth at 10 uM after 24 hrs by SRB assay; details: SNB-75, 24 h, read-out: Activity
NCI-H460 = assay: Cytotoxicity against human NCI-H460 cells assessed as cell growth at 10 uM after 24 hrs by SRB assay; details: NCI-H460, 24 h, read-out: Activity
NCI-H226 [8] = assay: Cytotoxicity against human NCI-H226 cells assessed as cell growth at 10 uM after 24 hrs by SRB assay; details: NCI-H226, 24 h, read-out: Activity
[9] = Cytotoxicity against human MOLT4 cells assessed as cell growth at 10 uM after 24 hrs by SRB assay; details: MOLT-4, 24 h, read-out: Activity
[10] = Cytotoxicity against human RXF393 cells assessed as cell growth at 10 uM after 24 hrs by SRB assay; details: RXF 393, 24 h, read-out: Activity
[11] = Cytotoxicity against human OVCAR5 cells assessed as cell growth at 10 uM after 24 hrs by SRB assay; details: OVCAR-5, 24 h, read-out: Activity
[12] = Cytotoxicity against human UO31 cells assessed as cell growth at 10 uM after 24 hrs by SRB assay; details: UO-31, 24 h, read-out: Activity
SK-MEL-2 = assay: Cytotoxicity against human SK-MEL-2 cells assessed as cell growth at 10 uM after 24 hrs by SRB assay; details: SK-MEL-2, 24 h, read-out: Activity
T47D = assay: Cytotoxicity against human T47D cells assessed as growth inhibition at 10 uM after 24 hrs by SRB assay; details: read-out: GI
[13] = Cytotoxicity against human SW620 cells assessed as cell growth at 10 uM after 24 hrs by SRB assay; details: SW-620, 24 h, read-out: Activity
A498 = assay: Cytotoxicity against human A498 cells assessed as growth inhibition at 10 uM after 24 hrs by SRB assay; details: A498, 24 h, read-out: GI
[14] = Cytotoxicity against human HCT15 cells assessed as cell growth at 10 uM after 24 hrs by SRB assay; details: HCT-15, 24 h, read-out: Activity
[15] = Cytotoxicity against human PC3 cells assessed as cell growth at 10 uM after 24 hrs by SRB assay; details: PC-3, 24 h, read-out: Activity
Malme-3M = assay: Cytotoxicity against human MALME-3M cells assessed as cell growth at 10 uM after 24 hrs by SRB assay; details: read-out: Activity
A549 = assay: Cytotoxicity against human A549 cells assessed as cell growth at 10 uM after 24 hrs by SRB assay; details: A549, 24 h, read-out: Activity
EKVX = assay: Cytotoxicity against human EKVX cells assessed as cell growth at 10 uM after 24 hrs by SRB assay; details: read-out: Activity
[16] = Cytotoxicity against human RPMI8226 cells assessed as growth inhibition at 10 uM after 24 hrs by SRB assay; details: RPMI-8226, 24 h, read-out: GI
K562 [17] = assay: Cytotoxicity against human K562 cells assessed as growth inhibition at 10 uM after 24 hrs by SRB assay; details: K562, 24 h, read-out: GI
ACHN = assay: Cytotoxicity against human ACHN cells assessed as cell growth at 10 uM after 24 hrs by SRB assay; details: read-out: Activity
NCI-H226 [18] = assay: Cytotoxicity against human NCI-H226 cells assessed as growth inhibition at 10 uM after 24 hrs by SRB assay; details: NCI-H226, 24 h, read-out: GI
NCI-H522 = assay: Cytotoxicity against human NCI-H522 cells assessed as growth inhibition at 10 uM after 24 hrs by SRB assay; details: NCI-H522, 24 h, read-out: GI

| SMILES | growth at 10 µM [1] [%] | growth at 10 µM [4] [%] | growth at 10 µM (MDA-MB-435) [%] | growth at 10 µM (K562 [5]) [%] | growth at 10 µM [6] [%] | growth at 10 µM (NCI-H23) [%] | growth at 10 µM [7] [%] | growth at 10 µM (NCI-H460) [%] | growth at 10 µM (NCI-H226 [8]) [%] | growth at 10 µM [9] [%] | growth at 10 µM [10] [%] | growth at 10 µM [11] [%] | growth at 10 µM [12] [%] | growth at 10 µM (SK-MEL-2) [%] | growth at 10 µM [13] [%] | growth at 10 µM [14] [%] | growth at 10 µM [15] [%] | growth at 10 µM (Malme-3M) [%] | growth at 10 µM (A549) [%] | growth at 10 µM (EKVX) [%] | other results |
| --- | --- | --- | --- | --- | --- | --- | --- | --- | --- | --- | --- | --- | --- | --- | --- | --- | --- | --- | --- | --- | --- |
| COCCCNc1nc(NC(=O)c2cc(Br)cc(C(F)(F)F)c2)cc(-c2cccnc2)n1 | 95.8 | 85.6 | 88.4 | 73.3 | 83 | 103 | 115 | 85.7 | 91.8 | 80.1 | 103 | 100 | 60.5 | 80.6 | 86.9 | 85.9 | 70.6 | 99.7 | 82 | 96 | inhibition of growth at 10 µM [2]: 42.1%; inhibition of growth at 10 µM (MDA-MB-231): 24.2%; inhibition of growth at 10 µM [3]: 39.5%; inhibition of growth at 10 µM (SK-MEL-5): 29.5%; inhibition of growth at 10 µM (T47D): 35%; inhibition of growth at 10 µM (A498): 23.8%; inhibition of growth at 10 µM [16]: 34.4%; inhibition of growth at 10 µM (K562 [17]): 26.7%; growth at 10 µM (ACHN): 87.3% |
| Cc1cc(Cl)ccc1C(=O)Nc1cc(-c2cccnc2)nc(NCCCN2CCOCC2)n1 | 87.2 | 99.8 | 101 | 113 | 96.9 | 96.7 | 91.3 | 110 | 77.6 | 98 | 101 | 94.1 | 89.2 | 106 | 99 | 104 | 107 | 104 | 87.7 | 99.8 | inhibition of growth at 10 µM (A498): 22.8%; inhibition of growth at 10 µM (NCI-H226 [18]): 22.4%; growth at 10 µM (ACHN): 100% |
| COCCCNc1nc(NC(=O)c2cc(OC)cc(OC)c2)cc(-c2cccnc2)n1 | 86.7 | 90.3 | 100 | 86.1 | 95.3 | 98.6 | 73.1 | 95.2 | 96.5 | 83.5 | 97.7 | 95.7 | 56.7 | 78.8 | 101 | 90.3 | 87.3 | 112 | 91.2 | 105 | inhibition of growth at 10 µM (NCI-H522): 23.5%; inhibition of growth at 10 µM [2]: 47.4%; inhibition of growth at 10 µM (MDA-MB-231): 30.9%; inhibition of growth at 10 µM [3]: 43.3%; inhibition of growth at 10 µM (SK-MEL-5): 27.6%; inhibition of growth at 10 µM (T47D): 36.2%; inhibition of growth at 10 µM [16]: 30.6%; growth at 10 µM (ACHN): 98.2% |
